From ChEMBL document CHEMBL1148572, “1-((S)-2-aminopropyl)-1H-indazol-6-ol: a potent peripherally acting 5-HT2 receptor agonist with ocular hypotensive activity” (J Med Chem, 2006)
pEC50, pKi: −log10 of the molar value.

Legend:
[1] = molecular target: T1, Muscarinic acetylcholine receptor (Homo sapiens) (UniProt P20309+P08173+P11229+P08172+P08912); assay: Inhibition of non selective binding to muscarinic receptor at 100 nM; assay type: protein assay
[2] = molecular target: Adenosine receptor (Homo sapiens) (UniProt P30542+P29275+P0DMS8+P29274); assay: Inhibition of non selective binding to adenosine receptor at 10 uM; assay type: protein assay
[3] = molecular target: 5-hydroxytryptamine receptor 4 (Homo sapiens, UniProt Q13639); assay: Inhibitory activity against 5HT4 receptor
[4] = Inhibitory activity at site 2 of sodium channel at 1 nM
[5] = molecular target: T2, Androgen receptor (Homo sapiens) (UniProt P10275); assay: Inhibition of testosterone receptor at 100 nM
T2 sequence (whole entry): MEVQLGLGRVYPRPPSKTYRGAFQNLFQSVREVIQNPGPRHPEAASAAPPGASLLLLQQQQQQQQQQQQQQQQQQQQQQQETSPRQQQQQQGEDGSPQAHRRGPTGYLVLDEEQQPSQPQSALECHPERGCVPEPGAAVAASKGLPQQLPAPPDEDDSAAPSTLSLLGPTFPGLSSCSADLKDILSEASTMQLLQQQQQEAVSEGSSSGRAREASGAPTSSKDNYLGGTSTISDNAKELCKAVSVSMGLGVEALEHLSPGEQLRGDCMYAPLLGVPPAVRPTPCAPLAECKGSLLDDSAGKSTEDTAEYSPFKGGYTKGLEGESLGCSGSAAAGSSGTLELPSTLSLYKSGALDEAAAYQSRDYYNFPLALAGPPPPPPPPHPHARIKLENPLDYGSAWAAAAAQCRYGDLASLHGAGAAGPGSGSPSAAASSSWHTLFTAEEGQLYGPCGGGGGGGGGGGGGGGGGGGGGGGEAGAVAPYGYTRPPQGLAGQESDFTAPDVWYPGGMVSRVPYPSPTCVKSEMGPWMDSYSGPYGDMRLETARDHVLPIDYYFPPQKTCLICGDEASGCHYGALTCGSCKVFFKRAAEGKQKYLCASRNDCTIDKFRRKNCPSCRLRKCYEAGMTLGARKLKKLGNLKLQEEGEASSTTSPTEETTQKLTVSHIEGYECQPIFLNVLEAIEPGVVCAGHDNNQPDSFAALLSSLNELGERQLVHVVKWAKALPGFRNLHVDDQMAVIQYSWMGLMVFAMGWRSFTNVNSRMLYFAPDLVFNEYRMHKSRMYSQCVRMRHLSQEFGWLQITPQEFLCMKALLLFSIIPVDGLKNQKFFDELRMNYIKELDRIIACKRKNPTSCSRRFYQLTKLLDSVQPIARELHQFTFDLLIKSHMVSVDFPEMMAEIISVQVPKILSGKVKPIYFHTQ

[6] = molecular target: GABA-A receptor; benzodiazepine site (Homo sapiens) (UniProt P14867+P18507+P48169+Q99928+P34903+Q8N1C3+P47869+P31644+Q16445); assay: Inhibition of central benzodiazepine site on GABAA receptor at 1 nM; assay type: protein-complex assay
[7] = molecular target: Opioid receptors; mu/kappa/delta (Homo sapiens) (UniProt P41145+P41143+P35372); assay: Inhibition of non selective binding to opiate receptor at 10 uM; assay type: protein assay
[8] = molecular target: T3, Atrial natriuretic peptide receptor 1 (Homo sapiens) (UniProt P16066); assay: Inhibition of ANP A at 100 nM
T3 sequence (whole entry): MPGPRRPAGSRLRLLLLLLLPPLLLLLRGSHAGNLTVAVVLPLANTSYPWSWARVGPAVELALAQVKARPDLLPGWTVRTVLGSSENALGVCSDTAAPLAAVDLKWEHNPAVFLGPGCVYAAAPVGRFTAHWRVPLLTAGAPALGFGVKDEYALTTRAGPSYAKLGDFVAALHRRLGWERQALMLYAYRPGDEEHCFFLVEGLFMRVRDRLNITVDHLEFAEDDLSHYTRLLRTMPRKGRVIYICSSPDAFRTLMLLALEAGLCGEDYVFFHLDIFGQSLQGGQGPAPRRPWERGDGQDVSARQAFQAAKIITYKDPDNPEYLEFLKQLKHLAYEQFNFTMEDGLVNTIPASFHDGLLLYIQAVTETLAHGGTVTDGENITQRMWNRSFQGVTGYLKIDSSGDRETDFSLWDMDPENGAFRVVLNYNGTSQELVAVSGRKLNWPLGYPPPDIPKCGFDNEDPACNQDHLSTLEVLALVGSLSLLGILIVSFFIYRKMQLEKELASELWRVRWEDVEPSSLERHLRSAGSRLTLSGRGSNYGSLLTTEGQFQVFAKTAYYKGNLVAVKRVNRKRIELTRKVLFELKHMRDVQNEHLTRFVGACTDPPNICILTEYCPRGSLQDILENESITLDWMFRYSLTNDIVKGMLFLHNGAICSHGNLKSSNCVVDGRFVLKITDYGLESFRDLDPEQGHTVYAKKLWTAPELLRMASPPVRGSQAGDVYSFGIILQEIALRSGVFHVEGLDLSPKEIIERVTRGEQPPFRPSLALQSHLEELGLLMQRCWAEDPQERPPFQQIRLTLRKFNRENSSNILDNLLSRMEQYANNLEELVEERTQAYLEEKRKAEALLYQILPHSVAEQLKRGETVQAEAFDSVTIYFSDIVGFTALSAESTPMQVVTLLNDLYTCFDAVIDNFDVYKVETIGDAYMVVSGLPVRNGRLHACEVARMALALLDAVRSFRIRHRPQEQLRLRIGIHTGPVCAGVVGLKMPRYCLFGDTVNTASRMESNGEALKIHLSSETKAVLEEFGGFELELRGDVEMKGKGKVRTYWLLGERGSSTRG

[9] = molecular target: T4, Type-1 angiotensin II receptor (Homo sapiens) (UniProt P30556); assay: Inhibition of type 1 angiotensin 2 receptor at 1 nM
T4 sequence (whole entry): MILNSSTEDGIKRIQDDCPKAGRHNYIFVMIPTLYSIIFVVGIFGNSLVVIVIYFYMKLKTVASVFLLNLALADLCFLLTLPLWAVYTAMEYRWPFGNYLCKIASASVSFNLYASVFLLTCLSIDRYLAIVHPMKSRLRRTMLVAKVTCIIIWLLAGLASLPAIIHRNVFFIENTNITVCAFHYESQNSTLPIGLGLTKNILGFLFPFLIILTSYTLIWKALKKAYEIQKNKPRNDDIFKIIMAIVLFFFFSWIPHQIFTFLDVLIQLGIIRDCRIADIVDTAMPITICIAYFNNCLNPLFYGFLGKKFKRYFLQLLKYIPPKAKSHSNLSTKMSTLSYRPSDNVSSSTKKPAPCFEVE

[10] = molecular target: T1, Muscarinic acetylcholine receptor (Homo sapiens); assay: Inhibition of non selective binding to muscarinic receptor at 1 nM; assay type: protein assay
[11] = molecular target: Alpha-2B adrenergic receptor (Homo sapiens, UniProt P18089); assay: Activity at adrenergic alpha-2B receptor expressed in opposum kidney OK cell by adenylyl cyclase assay; assay type: functional, cell-based
[12] = molecular target: T1, Muscarinic acetylcholine receptor (Homo sapiens); assay: Inhibition of non selective binding to muscarinic receptor at 10 uM; assay type: protein assay

Chain of 5-hydroxytryptamine receptor 4 (Q13639 whole entry): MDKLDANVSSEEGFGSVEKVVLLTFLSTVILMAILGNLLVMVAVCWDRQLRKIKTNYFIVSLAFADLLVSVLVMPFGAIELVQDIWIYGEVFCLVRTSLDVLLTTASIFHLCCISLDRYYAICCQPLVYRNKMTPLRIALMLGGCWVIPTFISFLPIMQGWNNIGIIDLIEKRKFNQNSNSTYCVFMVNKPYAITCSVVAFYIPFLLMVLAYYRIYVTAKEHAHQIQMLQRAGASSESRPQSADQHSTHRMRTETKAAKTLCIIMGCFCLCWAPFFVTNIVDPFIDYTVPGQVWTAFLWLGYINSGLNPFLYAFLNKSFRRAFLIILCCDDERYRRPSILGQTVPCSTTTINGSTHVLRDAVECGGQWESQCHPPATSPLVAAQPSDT
Chain of Opioid receptors; mu/kappa/delta (Homo sapiens) (P35372 whole entry, looked up): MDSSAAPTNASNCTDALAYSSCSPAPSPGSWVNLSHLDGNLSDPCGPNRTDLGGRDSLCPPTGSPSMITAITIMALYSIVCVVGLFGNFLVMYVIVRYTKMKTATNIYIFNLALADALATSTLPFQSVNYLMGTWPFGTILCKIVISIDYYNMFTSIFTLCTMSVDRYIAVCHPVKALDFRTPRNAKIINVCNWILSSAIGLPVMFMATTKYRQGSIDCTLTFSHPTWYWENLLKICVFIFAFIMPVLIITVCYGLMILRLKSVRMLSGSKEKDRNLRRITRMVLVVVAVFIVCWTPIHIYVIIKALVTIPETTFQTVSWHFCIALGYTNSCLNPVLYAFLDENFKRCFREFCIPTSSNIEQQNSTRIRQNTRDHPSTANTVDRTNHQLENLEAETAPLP
Chain of Opioid receptors; mu/kappa/delta (Homo sapiens) (P41143 whole entry, looked up): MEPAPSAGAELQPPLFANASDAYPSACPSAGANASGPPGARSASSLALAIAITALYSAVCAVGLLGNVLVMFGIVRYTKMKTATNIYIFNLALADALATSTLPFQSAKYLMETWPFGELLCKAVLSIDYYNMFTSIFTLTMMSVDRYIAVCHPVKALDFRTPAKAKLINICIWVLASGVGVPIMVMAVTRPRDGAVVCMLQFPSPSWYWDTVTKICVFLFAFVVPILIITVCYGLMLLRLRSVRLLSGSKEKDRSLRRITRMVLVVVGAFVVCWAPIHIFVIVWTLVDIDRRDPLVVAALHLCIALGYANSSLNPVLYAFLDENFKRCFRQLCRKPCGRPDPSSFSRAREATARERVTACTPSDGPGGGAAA
Chain of Opioid receptors; mu/kappa/delta (Homo sapiens) (P41145 whole entry, looked up): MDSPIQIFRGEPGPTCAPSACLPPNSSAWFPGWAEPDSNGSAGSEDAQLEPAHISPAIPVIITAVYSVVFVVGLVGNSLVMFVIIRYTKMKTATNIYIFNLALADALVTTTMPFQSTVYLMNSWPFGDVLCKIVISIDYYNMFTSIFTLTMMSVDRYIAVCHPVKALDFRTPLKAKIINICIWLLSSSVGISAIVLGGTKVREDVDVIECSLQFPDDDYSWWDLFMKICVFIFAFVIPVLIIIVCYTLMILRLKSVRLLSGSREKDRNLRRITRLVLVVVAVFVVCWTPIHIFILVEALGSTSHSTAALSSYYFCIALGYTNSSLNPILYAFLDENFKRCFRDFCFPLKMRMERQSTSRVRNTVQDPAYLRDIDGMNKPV
Chain of Adenosine receptor (Homo sapiens) (P0DMS8 whole entry, looked up): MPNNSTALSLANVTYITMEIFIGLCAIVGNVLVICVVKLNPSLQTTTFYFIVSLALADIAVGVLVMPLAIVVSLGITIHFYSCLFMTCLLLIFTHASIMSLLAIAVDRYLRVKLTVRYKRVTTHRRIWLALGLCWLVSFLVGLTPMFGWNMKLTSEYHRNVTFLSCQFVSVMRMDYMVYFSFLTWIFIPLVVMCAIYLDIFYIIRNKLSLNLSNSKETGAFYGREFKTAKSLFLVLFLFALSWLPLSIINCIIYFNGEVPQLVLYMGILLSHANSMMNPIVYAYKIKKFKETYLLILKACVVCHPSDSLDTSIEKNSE
Chain of Adenosine receptor (Homo sapiens) (P29274 whole entry, looked up): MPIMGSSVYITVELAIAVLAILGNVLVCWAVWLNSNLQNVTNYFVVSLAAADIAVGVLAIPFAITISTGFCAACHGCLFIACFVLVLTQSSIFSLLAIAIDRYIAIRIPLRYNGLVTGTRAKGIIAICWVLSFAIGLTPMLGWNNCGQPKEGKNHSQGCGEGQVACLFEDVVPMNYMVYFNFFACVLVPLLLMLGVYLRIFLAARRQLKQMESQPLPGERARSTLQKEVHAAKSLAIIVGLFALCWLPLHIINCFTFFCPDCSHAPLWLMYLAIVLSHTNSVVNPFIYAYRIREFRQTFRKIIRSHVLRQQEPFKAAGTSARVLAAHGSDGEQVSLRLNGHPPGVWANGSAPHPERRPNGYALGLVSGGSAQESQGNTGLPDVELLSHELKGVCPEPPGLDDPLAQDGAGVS
Chain of Adenosine receptor (Homo sapiens) (P29275 whole entry, looked up): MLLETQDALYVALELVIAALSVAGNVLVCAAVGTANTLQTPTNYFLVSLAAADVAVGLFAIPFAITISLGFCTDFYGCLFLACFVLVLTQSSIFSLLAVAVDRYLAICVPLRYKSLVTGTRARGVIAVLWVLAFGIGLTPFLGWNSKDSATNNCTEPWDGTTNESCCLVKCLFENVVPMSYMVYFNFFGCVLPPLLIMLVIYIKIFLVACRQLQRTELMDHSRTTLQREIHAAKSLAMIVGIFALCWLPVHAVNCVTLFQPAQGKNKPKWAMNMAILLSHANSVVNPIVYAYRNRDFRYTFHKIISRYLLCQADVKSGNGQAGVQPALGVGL
Chain of Adenosine receptor (Homo sapiens) (P30542 whole entry, looked up): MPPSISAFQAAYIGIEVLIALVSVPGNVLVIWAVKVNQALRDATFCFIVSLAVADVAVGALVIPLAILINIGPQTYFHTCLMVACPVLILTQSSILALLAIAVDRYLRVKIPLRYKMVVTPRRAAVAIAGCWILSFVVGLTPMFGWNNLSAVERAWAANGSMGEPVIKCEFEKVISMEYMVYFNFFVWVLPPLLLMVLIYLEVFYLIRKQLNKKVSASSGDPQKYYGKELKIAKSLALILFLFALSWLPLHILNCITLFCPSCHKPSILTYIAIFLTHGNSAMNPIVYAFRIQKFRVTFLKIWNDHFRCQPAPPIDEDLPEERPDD
Chain of Alpha-2B adrenergic receptor (P18089 whole entry): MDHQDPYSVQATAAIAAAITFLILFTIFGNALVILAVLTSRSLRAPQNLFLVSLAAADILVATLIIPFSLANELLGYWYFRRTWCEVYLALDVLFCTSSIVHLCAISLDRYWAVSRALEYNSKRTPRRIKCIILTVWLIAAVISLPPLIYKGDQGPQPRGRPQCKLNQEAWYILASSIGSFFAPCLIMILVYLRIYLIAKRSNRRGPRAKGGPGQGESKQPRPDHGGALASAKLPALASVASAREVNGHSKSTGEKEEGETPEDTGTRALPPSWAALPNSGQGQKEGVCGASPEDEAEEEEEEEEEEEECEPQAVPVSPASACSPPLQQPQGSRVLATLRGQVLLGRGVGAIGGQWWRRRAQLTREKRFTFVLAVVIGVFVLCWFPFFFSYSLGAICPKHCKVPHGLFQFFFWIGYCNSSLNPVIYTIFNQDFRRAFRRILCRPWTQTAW

Which inhibition [1] does the source give for `C[C@H](N)Cn1ncc2ccc(O)cc21` here?
The inhibition was 0.28%.

What about the inhibition [2] of the same molecule?
Its inhibition is 13.2%.

And the pKi [3]?
The pKi was 6.29.

And the inhibition [4]?
Its inhibition is 10.3%.

What about the inhibition [5] of the same molecule?
Its inhibition is 0.86%.

What about the inhibition [6] of the same molecule?
The inhibition was 19.6%.

And the inhibition [7]?
The inhibition was 63.3%.

And the inhibition [8]?
Its inhibition is 3.01%.

What about the inhibition [9] of the same molecule?
The inhibition was 5.26%.

What about the inhibition [10] of the same molecule?
The inhibition was -0.51%.

And the pEC50 [11]?
Its pEC50 is 5.52.

And the inhibition [12]?
The inhibition was 12.2%.
